The structures appear in SMILES notation. Where two headings read alike, the source gives them in different places.

Experimental findings from patent US6787651B2, “Substituted indoles, pharmaceutical compounds containing such indoles and their use as PPAR-γ binding agents” (SmithKline Beecham Corporation, priority 2000, dated 2004) are described below.

Data set [1] deals with T1, PPARγ ligand binding domain (LBD) (amino acids 195-475) (Homo sapiens, UniProt P37231).
T1 construct: polyHis; made in house; host or cells: Escherichia coli
T1 sequence (P37231 195-475 isoform P37231-2): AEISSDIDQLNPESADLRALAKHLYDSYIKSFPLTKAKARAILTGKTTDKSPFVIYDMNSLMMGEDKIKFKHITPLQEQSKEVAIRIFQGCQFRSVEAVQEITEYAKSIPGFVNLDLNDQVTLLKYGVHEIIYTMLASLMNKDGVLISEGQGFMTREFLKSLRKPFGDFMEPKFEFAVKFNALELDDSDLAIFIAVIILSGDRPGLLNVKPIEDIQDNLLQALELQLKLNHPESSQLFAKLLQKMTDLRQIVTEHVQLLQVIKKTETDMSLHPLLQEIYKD
The data set is described as follows: PPAR-γ binding assay (spin plate / gel filtration binding assay, displacement of [3H]BRL 49653). As to the method: The activity of a given compound in binding to PPAR-γ can be assayed routinely according to procedures known in the art. […] The PPAR-γ binding assay described below was used to determine the PPAR-γ binding activities of the compounds of the invention.
Compounds were tested for their ability to bind to PPARγ using a spin plate assay (gel filtration binding assay). […] Each compound was tested in triplicate. […] The plates were centrifuged (Beckman GS-6R) at 2500 rpm for 5 minutes, 170 μl Scitisafe® scintillation fluid (Fisher) was added to each well, the plates were sealed, and after 1 hour, were counted in a Wallac MicroBeta counter. The amount of nonspecific binding, as assessed by control wells containing 10 μM of the corresponding unlabeled ligand, was subtracted from each data point. For each compound tested, the data was averaged and plots of ligand concentration versus CPM of radioligand bound were constructed. Apparent IC50 values were estimated from nonlinear least-squares fit of the data assuming simple competitive binding.

The mark [2] stands for this setting: read-out: IC50 range in the PPAR-γ Binding Assay.

As a reminder, the melting point is the temperature of the solid-liquid transition. For `COc1cccc(Cn2c(C(=O)O)c(-c3ccc(OCC4CC4)cc3)c3cc(OCc4ccccc4)ccc32)c1` [Example 229, 5-(Benzyloxy)-3-[4-(cyclopropylmethoxy)phenyl]-1-(3-methoxybenzyl)-1H-indole-2-carboxylic acid], the melting point lay in the range of 185 to 187 °C. In general, IC50 refers to the concentration at which inhibition is half-maximal. `COc1ccc(Cc2c(C(=O)O)n(CC3CC3)c3ccccc23)cc1` [Example 230, 1-(Cyclopropylmethyl)-3-[(4-methoxyphenyl)methyl]indole-2-carboxylic acid] gave a melting point of 162 to 163 °C. For the same compound, in data set [1] (setting [2]), the IC50 lay within 10 to 10000 nM. On to `O=C(O)c1c(C=C2CC2)c2ccccc2n1Cc1cccc(C(F)(F)F)c1` [Example 231, 3-(Cyclopropylidenemethyl)-1-[3-(trifluoromethyl)benzyl]-1H-indole-2-carboxylic acid], for which the melting point lay within 148 to 150 °C. Further, the 50% inhibitory concentration (IC50) in data set [1] (setting [2]) was in the range of 0.1 to 9.99 nM.

The compound `O=C(O)c1c(-c2cc3ccccc3o2)c2ccccc2n1Cc1cccc(C(F)(F)F)c1` [Example 235] yielded a melting point of 211 to 214 °C. The IC50 in data set [1] (setting [2]) is 0.1 to 9.99 nM.

The compound `CC(=O)c1ccc(-c2c(C(=O)O)n(Cc3cccc(C(F)(F)F)c3)c3ccccc23)s1` [Example 236] gave a melting point of 212 to 214 °C. Besides, in data set [1] (setting [2]), the IC50 fell in the range of 0.1 to 9.99 nM.

`O=C(O)c1c(-c2ccco2)c2ccccc2n1Cc1cccc(C(F)(F)F)c1` [Example 237] returned a melting point of 172 to 173 °C. Besides, the 50% inhibitory concentration (IC50) in data set [1] (setting [2]) lay within 0.1 to 9.99 nM. The compound `COc1cccc(Cn2c(C(=O)O)c(-c3ccc(-c4ccco4)cc3)c3ccccc32)c1` [Example 240] yielded a melting point of 190 to 192 °C. The IC50 in data set [1] (setting [2]) fell in the range of 0.1 to 9.99 nM. In the case of `COc1ccc(C(=O)c2c(C(=O)O)n(Cc3cccc(OC)c3)c3ccccc23)cc1` [Example 241], the melting point was 68 to 69 °C. Besides, the IC50 in data set [1] fell in the range of 10 to 10000 nM. The compound `COc1ccc(C(=O)c2c(C(=O)O)n(Cc3cccc(C(F)(F)F)c3)c3ccccc23)cc1` [Example 242] returned a melting point of 215 to 216 °C. The compound also gave an IC50 in data set [1] of 10 to 10000 nM. Compound `O=C(O)c1c(/C=C/c2ccccc2)c2ccccc2n1Cc1cccc(C(F)(F)F)c1` [Example 243] yielded a melting point of 183 to 185 °C. The IC50 in data set [1] (setting [2]) fell in the range of 0.1 to 9.99 nM.

Regarding `O=C(O)c1c(C#Cc2ccccc2)c2ccccc2n1Cc1cccc(C(F)(F)F)c1` [Example 244], the melting point lay within 165 to 167 °C. The IC50 in data set [1] (setting [2]) fell in the range of 0.1 to 9.99 nM. For `O=C(O)c1c(CC2CC2)c2ccccc2n1Cc1cccc(C(F)(F)F)c1` [Example 264], the melting point is 174 to 175 °C. Also, in data set [1] (setting [2]), the IC50 lay in the range of 0.1 to 9.99 nM.

In turn, `COc1cccc(Cn2c(C(=O)O)c(CC3CC3)c3ccccc32)c1` [Example 265] had a melting point of 165 to 167 °C. Further, the IC50 in data set [1] (setting [2]) lay in the range of 0.1 to 9.99 nM. As to `COc1cccc(Cn2c(C(=O)O)c(-c3ccc(C(C)(C)C)cc3)c3cc(COCC4CC4)ccc32)c1` [Example 266], the melting point was 79 to 80 °C. For the same compound, the IC50 in data set [1] (setting [2]) fell in the range of 0.1 to 9.99 nM.

The compound `COc1cccc(Cn2c(C(=O)O)c(-c3ccc(C(C)(C)C)cc3)c3cc(NC(=O)C4CC4)ccc32)c1` [Example 268] registered a melting point of 194 to 196 °C. Also, the IC50 in data set [1] (setting [2]) lay within 0.1 to 9.99 nM. For `COc1cccc(Cn2c(C(=O)O)c(-c3ccc(C(C)(C)C)cc3)c3cc(NC(=O)C4CCCC4)ccc32)c1` [Example 269] the same measures were 154 to 156 °C and 10 to 10000 nM. `COc1cccc(Cn2c(C(=O)O)c(-c3ccc(C(C)(C)C)cc3)c3cc(NC(=O)NCC4CC4)ccc32)c1` [Example 270] displayed a melting point of 141 to 142 °C. Further, the IC50 in data set [1] (setting [2]) was 10 to 10000 nM. Compound `COc1cccc(Cn2c(C(=O)O)c(-c3ccc(C(C)(C)C)cc3)c3cc(C4CCCC4)ccc32)c1` [Example 273] showed a melting point of 192 to 193 °C. The IC50 in data set [1] (setting [2]) was 0.1 to 9.99 nM.

`COc1cccc(Cn2c(C(=O)O)c(-c3ccc(C(C)(C)C)cc3)c3cc(N(C)C(=O)C4CC4)ccc32)c1` [Example 274]: the melting point lay within 219 to 222 °C. Further, the IC50 in data set [1] (setting [2]) was 10 to 10000 nM.

The compound `COc1cccc(Cn2c(C(=O)O)c(-c3ccc(C(C)(C)C)cc3)c3cc4c(cc32)OCO4)c1` [Example 277] came in with a melting point of 179.1 to 179.7 °C. Moreover, the IC50 in data set [1] (setting [2]) lay within 0.1 to 9.99 nM. Compound `COc1ccc(-c2c(C(=O)O)n(CS(=O)(=O)c3ccccc3)c3ccccc23)cc1` [Example 282] came in with a melting point of 166 to 168 °C. Also, the IC50 in data set [1] (setting [2]) is 10 to 10000 nM. `CC(C)c1cccc(-c2c(C(=O)O)n(Cc3cccc(OCC4CC4)c3)c3ccccc23)c1` [Example 284] had a melting point of 204 °C. Moreover, the IC50 in data set [1] (setting [2]) was 0.1 to 9.99 nM. The compound `CCOc1ccc(-c2c(C(=O)O)n(Cc3ccc(F)cc3)c3c(NC(=O)C4CC4)cccc23)cc1` [Example 285] came in with a melting point of 250 °C.

The compound `CCOc1ccc(-c2c(C(=O)O)n(Cc3ccc(F)cc3)c3c(N(C)C(=O)C4CC4)cccc23)cc1` [Example 286] registered a melting point of 128 °C. Also, the IC50 in data set [1] (setting [2]) is 10 to 10000 nM. For `COc1ccc(-c2c(C(=O)O)n(Cc3cccc(OCC4CC4)c3)c3ccccc23)cc1` [Example 287] the same measures were 168 °C and 0.1 to 9.99 nM. The compound `CC(C)(C)c1ccc(-c2c(C(=O)O)n(Cc3cccc(OCC4CC4)c3)c3ccccc23)cc1` [Example 288] had a melting point of 120 °C. Besides, the concentration for half-maximal inhibition (IC50) in data set [1] (setting [2]) lay within 0.1 to 9.99 nM. As for `CC(C)(C)c1ccc(-c2c(C(=O)O)n(Cc3cccc(OC4CCCC4)c3)c3ccccc23)cc1` [Example 289], the melting point came out at 159 °C. The IC50 in data set [1] (setting [2]) was 0.1 to 9.99 nM. With `CC(=O)c1cccc(-c2c(C(=O)O)n(Cc3cccc(OCC4CC4)c3)c3ccccc23)c1` [Example 290], the melting point amounted to 103 °C. The IC50 in data set [1] (setting [2]) lay in the range of 0.1 to 9.99 nM.

`COc1cccc(Cn2c(C(=O)O)c(-c3ccc(C(C)(C)C)cc3)c3cccc(NC(=O)NC4CC4)c32)c1` [Example 291]: the melting point is 168 °C (dec.). For the same compound, in data set [1] (setting [2]), the concentration for half-maximal inhibition (IC50) lay in the range of 10 to 10000 nM. In the case of `COc1cccc(Cn2c(C(=O)O)c(-c3ccc(C(C)(C)C)cc3)c3cccc(NC(=O)C4CC4)c32)c1` [Example 292], the melting point was 151 °C. Besides, in data set [1] (setting [2]), the IC50 was 10 to 10000 nM. The corresponding values for `COc1cccc(Cn2c(C(=O)O)c(-c3ccc(C(C)(C)C)cc3)c3cccc(N(C)C(=O)N(C)C4CC4)c32)c1` [Example 293] are 112 to 115 °C (dec.) and 10 to 10000 nM. As for `COc1cccc(Cn2c(C(=O)O)c(-c3cccc(NC(=O)NC4CC4)c3)c3ccccc32)c1` [Example 294], the melting point was 110 °C (dec.). Further, in data set [1] (setting [2]), the half-maximal inhibitory concentration (IC50) is 10 to 10000 nM. The compound `COc1cccc(Cn2c(C(=O)O)c(-c3cccc(N(C)C(=O)C4CC4)c3)c3ccccc32)c1` [Example 295] showed a melting point of 200 °C. Besides, the IC50 in data set [1] (setting [2]) was in the range of 10 to 10000 nM.

`COc1cccc(Cn2c(C(=O)O)c(-c3ccc(C(C)(C)C)cc3)c3c(OCC4CC4)cccc32)c1` [Example 296] showed a melting point of 162 °C. The IC50 in data set [1] (setting [2]) was in the range of 10 to 10000 nM.

Turning to `COc1ccc(Cc2c(C(=O)O)n(Cc3cccc(OCC4CC4)c3)c3ccccc23)cc1` [Example 297], the melting point fell in the range of 168 to 170 °C. For the same compound, the IC50 in data set [1] (setting [2]) lay in the range of 0.1 to 9.99 nM. The compound `CC(=O)Nc1cccc(-c2c(C(=O)O)n(Cc3cccc(OCC4CC4)c3)c3ccccc23)c1` [Example 298] registered a melting point of 122 to 123 °C. Besides, the IC50 in data set [1] (setting [2]) was in the range of 10 to 10000 nM. `Cc1cccc(-c2c(C(=O)O)n(Cc3cccc(OCC4CC4)c3)c3ccccc23)c1` [Example 299] came in with a melting point of 58 to 60 °C. For the same compound, the IC50 in data set [1] (setting [2]) lay within 0.1 to 9.99 nM. Consider `COc1cccc(Cn2c(C(=O)O)c(-c3ncc(C4CC4)s3)c3ccccc32)c1` [Example 344], for which, in data set [1] (setting [2]), the IC50 is 0.1 to 9.99 nM. Consider `CCOc1ccc(-c2c(C(=O)O)n(Cc3ccc(F)cc3)c3ccc(CCOCC4CC4)cc23)cc1` [Example 348, 5-[2-(Cyclopropylmethoxy)ethyl]-3-(4-ethoxyphenyl)-1-(4-fluorobenzyl)-1H-indole-2-carboxylic acid], for which the IC50 in data set [1] (setting [2]) was in the range of 0.1 to 9.99 nM.

As to `COc1ccc(-c2c(C(=O)O)n(/C=C/c3ccccc3)c3ccccc23)cc1` [Example 349, 1-((1E)-2-Phenylvinyl)-3-(4-methoxyphenyl)indole-2-carboxylate], the IC50 in data set [1] (setting [2]) is 0.1 to 9.99 nM. `O=C(O)c1c(-c2ccc(S(=O)(=O)C3CC3)cc2)c2ccccc2n1Cc1cccc(C(F)(F)F)c1` [Example 353, 3-[4-(Cyclopropylsulfonyl)phenyl]-1-{[3-(trifluoromethyl)phenyl]methyl}indole-2-carb-oxylic acid]: the IC50 in data set [1] (setting [2]) lay within 0.1 to 9.99 nM. Take `COc1ccc(-c2c(C(=O)NS(=O)(=O)c3ccc(OC)cc3)n(Cc3cccc(C(F)(F)F)c3)c3ccccc23)cc1` [Example 357]: the IC50 in data set [1] (setting [2]) lay within 0.1 to 9.99 nM. The same measure, in the same setting: the same measure for `COc1ccc(-c2c(C(=O)C(F)(F)F)n(Cc3cccc(C(F)(F)F)c3)c3ccccc23)cc1` [Example 360, 2,2,2-Trifluoro-1-{3-(4-methoxyphenyl)-1-[3-(trifluoromethyl)benzyl]-1H-indol-2-yl}ethanone]: 10 to 10000 nM.
